Test results published in article PMC12596731, “Cys–Lys stapling for unprotected peptides via tunable linkers” (National Science Review, 2025).

Columns and labels:
[1] = Cys-Lys stapling of unprotected peptides with unsymmetrical linker (1.5 equiv): Cys thiol displaces phthalimide from N-thiophthalimide (disulfide, ~1 min), then ring closure by Lys amine attack on pentafluorophenyl ester with DIPEA (4 equiv); conditions: the molecule shown is the open-chain precursor, CH3CN:H2O 3:1, 25.0 °C, 0.167 h
[2] = system: human bladder cancer cells; format: cell-based; conditions: 48 h
Experimental: XI. Biological Experiments
Cell Counting Kit (CCK-8) was used to evaluate the proliferation inhibition activity of the compounds, and the half inhibitory concentration IC50 value was determined by single-concentration primary screening and multi-concentration.
Fetal Bovine Serum (FBS) 04-001-1acs, Biological industries; PBS phosphate buffer (PB180327), penicillin-streptomycin sulfate double resistant mixture (100× ) […]
Leibovitz's L-15 medium (PM151010), Wuhan Punosai Life Technology Co., LTD.
CCK-8 Kit, Biosharp life sciences; Trypsin-edta Digestive Solution (05200-056), GIBCO; Cellular DMSO (D2650 -100ML), SIGMA; 96-well cell culture plate, Corning Life Sciences (Wujiang) Co., LTD. 25, 75cm2 cell culture bottle, Corning Life Sciences (Wujiang) Co., LTD. Blood cell counting plate, Shanghai Qiujing Biochemical Reagent Instrument Co., LTD. Cisplatin (D8810), Solarbio life sciences;
Instruments and equipment
Super clean workbench (sw-cj-2fd), Sujing Aetna; Microscope (nib -100), Ningbo Yongxin Optical Co., Ltd; Carbon dioxide cell incubator (MCO -18AC), Phcbi; Electric constant temperature water bath pot (HWS -24), Shanghai Yiheng Technology Co., Ltd; Multifunctional microplate reader (Multiskan MK3), Thermo; One ten-thousandth balance (MS105DU), METTLER; Centrifuge (TD4N), ChangshaYingtai Instrument Co., Ltd; Mixer (SCI-VS), Selo Czech Republic, USA.
The samples were dissolved in the cell -grade DMSO after accurately weighing to generate the 10 mM drug solution. The drug solution was further diluted to tenfold detection concentration by cell culture medium.
Standard Operation Procedure
Detection principle of cytotoxicity (CCK -8 method):
The detection principle is that the CCK-8 reagent contains WST-8, which is reduced S52 to a highly water-soluble yellow methyl product (formazan) by dehydrogenase in the cell mitochondria under the action of electron carrier 1-methoxy-5-methylphenazine dimethyl sulfate (1-methoxy PMS). The number of the nail products produced is directly proportional to the number of living cells.
(1) Inoculate cells: The cells were prepared into single cell suspension with the culture medium containing 10% fetal bovine serum, and the 96 well plates were inoculated with 90 uL cell culture medium (Adherent cell viewed 5×10^4/mL and Suspension cell viewed 9×10^4/mL) per well, then cultured at 5% CO2 and 37 ℃ for 24 hours.
(2) Add the sample solution to be tested: Add 10 µL sample solution to each well. One concentration was set for each sample during preliminary screening and three multiple holes were set for each concentration. Eight concentration gradients were set for each sample for IC50 determination and three multiple holes were set for each concentration.
The 96 well plates were cultured at 5% CO2 and 37 ℃ for 48 hours. The experiment was divided into a blank group, control group and drug group.
(3) Color development: The old culture medium and drug solution of adherent cells were sucked out, then 100 µL of CCK-8 solution (diluted ten times with the basic medium) was added and the suspension cells were directly added 10 µL of CCK-8 stock solution. Culture at 37 ℃ with 5% CO2 for 1-4 h (dark operation, real-time observation).
(4) Result detection: The absorbance was measured at 450 nm with an enzyme labeling instrument and the original data and results were recorded.
(5) The toxicity is expressed by cell inhibition, and the calculation formula is as follows:
Cell inhibition (%) = (ODControl-ODDrug) / (ODControl-ODBlank)×100%. The IC50 was calculated by the software graphpad prism 8 (version 8.0.2, from GraphPad SoftwareInc)，and the experimental results are expressed in ± SD.
6) Positive control: Cisplatin.

[3] = Circular dichroism measurement of α-helicity; format: physicochemical; conditions: 40% TFE/H2O, 0.05 mM peptide, room temperature, path length 1 mm, 180-260 nm, average of at least 3 values
Experimental: VIII. Circular Dichroism Measurements.[22]
General Procedure for the measurement of CD spectra were mensurated at a wavelength ranging from 180 to 260 nm, with a path length of 1mm and a scanning speed of 200 nm/min at room temperature on the J-1500 (Jasco, Japan) spectropolarimeter. The lyophilized solid linear and staple peptides were dissolved in deionized water (bubbled with nitrogen for 30 minutes) to afford a 1 mM solution. The 1 mM stock solution was diluted with six different solvent systems (H2O, 5%, 10%, 20%, 30%, 40% TFE/H2O) to afford 0.05 mM solutions. The data described is the average of at least 3 values. The mean peptide ellipticity [θ] was calculated using equation (1) and plotted against […]
θ: ellipticity [mdeg], C: peptide molar concentration [M], Np: number of peptide units, l: cell path length [cm].[6]
Figure S20: The CD spectroscopy of 5y was measured in six different solvent systems Through the above data, we obviously saw that the stapled peptide 5y had the best helicity (34.7%) in 40% solution of TFE/H2O, and then we conducted CD test on the active peptide QN-16 before and after stapling.

chymotrypsin = assay: Proteolysis assay with chymotrypsin; format: in vitro ADME; conditions: chymotrypsin solution, 500 µL of 500 µM peptide in phosphate buffer pH 7.4 + 10 µL chymotrypsin 100 µg/mL, 37 °C, HPLC integration relative to starting peptide, read-out: peptide degraded under chymotrypsin for 1.5 h
Experimental: IX. Proteolysis assays.
500 µL of peptide TR-12 (500 µM, 2 µL DMSO was added to help solubilization) in phosphate buffer (pH 7.4) was mixed and incubated with 10 µL of the protease solution (Chymotrypsin – 100 µg/mL) at 37 ℃. At 0, 10, 20 , 40, 60, 90 minutes, aliquots of 50 µL were quenched with 50 µL of 1% TFA solution in MeCN respectively and subjected to HPLC analysis. Peptide concentrations at different time points were quantified by integration of the HPLC trace relative to the starting […]
500 µL of peptide 5o (500 µM, 2 µL DMSO was added to help solubilization) in phosphate buffer (pH 7.4) was mixed and incubated with
Table S2. Proteolytic assays of peptide TR-12 and 5o with chymotrypsin.
Time/Peak area 0 min 10 min 20 min 40 min 60 min 90 min

[4] = Serum stability study in Foetal Bovine Serum; conditions: 300 µL of 1 mg/mL peptide in deionized water + 300 µL Foetal Bovine Serum, 37 °C, CH3CN precipitation, RP-HPLC peak area of intact peptide
Experimental: The peptide of interest (300 µ L of 1 mg/mL stock solution in deionized water) was added to 300 µ L of
Foetal Bovine Serum and incubated at 37° C in an incubator. At each time point, an aliquot of 50 µ L was
drawn and an equal volume of ice-chilled CH3CN was added to the aliquot to precipitate serum proteins.
The cloudy mixture was centrifuged at 12,000 rpm for 10 min and then supernatant was removed. The
level of degradation was determined by the integration of the area under the RP-HPLC peak
corresponding to the intact peptide.
Before testing the serum stability, the standard curve (the relationship between concentration and peak
area) was established by RP-HPLC for CP-9 and TR-12 and QN-16 and 5h and 5o and 5w.
shift their retention times later.

IC50 [2] [µM] | Helicity (α-helicity by CD) [3] [%] | Compound | further results
 |  | CC(=O)N[C@@H](CCCCN)C(=O)N[C@@H](C)C(=O)N[C@@H](C)C(=O)N[C@@H](C)C(=O)N[C@@H](CSS/C(=C/Cl)c1cccc(C(=O)Oc2c(F)c(F)c(F)c(F)c2F)c1)C(=O)N[C@@H](Cc1ccccc1)C(N)=O [Ac-Lys-Ala-Ala-Ala-Cys(S-linker 3j-OPfp)-Phe-NH2] | ring closure, isolated yield ([1]; 26-membered ring): 72%
 |  | C[C@H](NC(=O)[C@H](C)NC(=O)[C@@H](N)CCCCN)C(=O)N[C@@H](C)C(=O)N[C@@H](CSS/C(=C/Cl)CCC(=O)Oc1c(F)c(F)c(F)c(F)c1F)C(=O)N[C@@H](Cc1ccccc1)C(N)=O [H-Lys-Ala-Ala-Ala-Cys(S-linker 3a-OPfp)-Phe-NH2] | ring closure, isolated yield ([1]; 25-membered ring): 68%
14.6 |  | CC(=O)N[C@H](C(=O)N[C@@H](CO)C(=O)N[C@@H](Cc1ccccc1)C(=O)N[C@H]1CCCCNC(=O)CC/C(=C\Cl)SSC[C@@H](C(=O)N[C@@H](CC(C)C)C(=O)N[C@@H](CC(C)C)C(=O)N[C@@H](CO)C(=O)N[C@@H](CCCNC(=N)N)C(N)=O)NC(=O)[C@H](Cc2c[nH]c3ccccc23)NC(=O)[C@H](Cc2ccc(O)cc2)NC(=O)[C@H](CCC(N)=O)NC1=O)[C@@H](C)O [Peptide 5k] | 
14.7 | 81.4 | CC(=O)N[C@H](C(=O)N[C@@H](CO)C(=O)N[C@@H](Cc1ccccc1)C(=O)N[C@H]1CCCCNC(=O)CCC/C(=C\Cl)SSC[C@@H](C(=O)N[C@@H](CC(C)C)C(=O)N[C@@H](CC(C)C)C(=O)N[C@@H](CO)C(=O)N[C@@H](CCCNC(=N)N)C(N)=O)NC(=O)[C@H](Cc2c[nH]c3ccccc23)NC(=O)[C@H](Cc2ccc(O)cc2)NC(=O)[C@H](CCC(N)=O)NC1=O)[C@@H](C)O [Peptide 5l] | 
21.7 |  | CC(=O)N[C@H](C(=O)N[C@@H](CO)C(=O)N[C@@H](Cc1ccccc1)C(=O)N[C@H]1CCCCNC(=O)COC/C(Cl)=C\SSC[C@@H](C(=O)N[C@@H](CC(C)C)C(=O)N[C@@H](CC(C)C)C(=O)N[C@@H](CO)C(=O)N[C@@H](CCCNC(=N)N)C(N)=O)NC(=O)[C@H](Cc2c[nH]c3ccccc23)NC(=O)[C@H](Cc2ccc(O)cc2)NC(=O)[C@H](CCC(N)=O)NC1=O)[C@@H](C)O [Peptide 5m] | 
8.55 |  | CC(=O)N[C@H](C(=O)N[C@@H](CO)C(=O)N[C@@H](Cc1ccccc1)C(=O)N[C@H]1CCCCNC(=O)CCCC/C(=C\Cl)SSC[C@@H](C(=O)N[C@@H](CC(C)C)C(=O)N[C@@H](CC(C)C)C(=O)N[C@@H](CO)C(=O)N[C@@H](CCCNC(=N)N)C(N)=O)NC(=O)[C@H](Cc2c[nH]c3ccccc23)NC(=O)[C@H](Cc2ccc(O)cc2)NC(=O)[C@H](CCC(N)=O)NC1=O)[C@@H](C)O [Peptide 5o] | metabolised at 1.5 h, 490 µM (chymotrypsin): 43%
14.9 |  | CC(=O)N[C@H](C(=O)N[C@@H](CO)C(=O)N[C@@H](Cc1ccccc1)C(=O)N[C@H]1CCCCNC(=O)c2ccccc2OCC/C(Cl)=C\SSC[C@@H](C(=O)N[C@@H](CC(C)C)C(=O)N[C@@H](CC(C)C)C(=O)N[C@@H](CO)C(=O)N[C@@H](CCCNC(=N)N)C(N)=O)NC(=O)[C@H](Cc2c[nH]c3ccccc23)NC(=O)[C@H](Cc2ccc(O)cc2)NC(=O)[C@H](CCC(N)=O)NC1=O)[C@@H](C)O [Peptide 5p] | 
22.4 |  | CC(=O)N[C@H](C(=O)N[C@@H](CO)C(=O)N[C@@H](Cc1ccccc1)C(=O)N[C@H]1CCCCNC(=O)c2cccc(c2)OCC/C(Cl)=C\SSC[C@@H](C(=O)N[C@@H](CC(C)C)C(=O)N[C@@H](CC(C)C)C(=O)N[C@@H](CO)C(=O)N[C@@H](CCCNC(=N)N)C(N)=O)NC(=O)[C@H](Cc2c[nH]c3ccccc23)NC(=O)[C@H](Cc2ccc(O)cc2)NC(=O)[C@H](CCC(N)=O)NC1=O)[C@@H](C)O [Peptide 5q] | 
16.2 | 44.7 | CC(=O)N[C@H](C(=O)N[C@@H](CO)C(=O)N[C@@H](Cc1ccccc1)C(=O)N[C@@H](CCCCN)C(=O)N[C@@H](CCC(N)=O)C(=O)N[C@@H](Cc1ccc(O)cc1)C(=O)N[C@@H](Cc1c[nH]c2ccccc12)C(=O)N[C@@H](CS)C(=O)N[C@@H](CC(C)C)C(=O)N[C@@H](CC(C)C)C(=O)N[C@@H](CO)C(=O)N[C@@H](CCCNC(=N)N)C(N)=O)[C@@H](C)O [TR-12] | metabolised at 1.5 h, 490 µM (chymotrypsin): 90%; time for complete degradation in bovine serum [4]: ≤ 2 h
 |  | Ac-CPIMEDRKP-NH2 [CP-9] | time for complete degradation in bovine serum [4]: ≤ 5 h
 | 60.8 | Ac-QSQQTFCNLWRLLKQN-NH2 (also: sidechain bridge or staple (positions not given here)) [Peptide 5v, QN-16 stapled with reagent 3d] | 
 | 34.7 | Ac-QSQQTFCNLWRLLKQN-NH2 (also: sidechain bridge or staple (positions not given here)) [Peptide 5y, QN-16 stapled with reagent 3m] | 
 | 30.3 | Ac-QSQQTFCNLWRLLKQN-NH2 [QN-16] | 
